The results in this text go back to PubChem BioAssay (NCI).

Holding throughout (assay): growth of human tumour cells (NCI), 48 h
For test [1], the system named is NCI-H226 lung.
Test [2] concerns RPMI-8226 leukemia.
Test [3] relates to SF-268 CNS.
Test [4] has as its system SK-MEL-2 melanoma.
Test [5] has as its system SN12C renal.
Test [6] concerns UACC-62 melanoma.
The test system of test [7] is SW-620 colon.
Test [8] deals with DU-145 prostate.
Test [9] relates to UO-31 renal.
Test [10] deals with HL-60(TB) leukemia.

SMILES strings stand for the structures.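 Briefly, cells in 96-well plates were exposed to five compound concentrations for 48 h, and endpoints were estimated by linear interpolation. GI50 is the concentration that inhibits growth by half. TGI denotes the concentration required for complete inhibition of growth.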 Bounds are passed on as bounds.

Consider `CC/C(Cl)=N\OC(=O)Nc1ccc(F)cc1F`, for which the TGI in test [1] is 34.2 µM; in test [2] it was 3.57 µM; in [3], more than 57.7 µM; in test [4], 33.1 µM; in test [5], 11.5 µM; in test [6], 32.3 µM. For the same molecule, the TGI in [7] was 2.95 µM; in test [8] it was 32.2 µM; in test [9] it was 29.4 µM; in test [10] it was 4.31 µM.
For `COc1cc(-n2cc(-c3cc(O)c(C/C=C(\C)CCC=C(C)C)c(O)c3)nn2)cc2c1O[C@]1(C)CC[C@@H](O)C(C)(C)[C@H]1C2`, the GI50 in test [1] is 5.98 µM; in test [2] it was 0.0324 µM; in [3], 2.03 µM; in test [4] it was 0.672 µM; in test [5], 3.86 µM; in test [6] it was 0.23 µM. Moreover, the GI50 in [7] is 0.726 µM; in test [8], 2.3 µM; in test [9], 0.365 µM; in [10] it was 0.0655 µM. Also, the TGI in test [1] is 68.4 µM; in [2], 0.475 µM; in [3], 30.4 µM; in [4], 11.5 µM; in test [5], more than 41.4 µM; in test [6] it was 2.98 µM. Also, the TGI in test [7] came out at 10.7 µM; in test [8], 26.3 µM; in test [9], 1.96 µM; in test [10] it was 3.88 µM.
Turning to `COc1ccc(C(=O)c2ccc(-n3cc(/C=C/[N+](=O)[O-])c4ccccc43)cc2)cc1`, the TGI in test [1] is more than 92.9 µM; in [2], more than 100 µM; in [3], more than 54.1 µM; in test [4] it was 58 µM; in test [5] it was 42.7 µM; in test [6] it was 28.5 µM. Further, the TGI was more than 100 µM in [7], more than 51.2 µM in test [8], 37.1 µM in [9] and 44.6 µM in test [10].
For the molecule `C/C(=N\Nc1ccccc1)C(CN(C)C)C(c1ccccc1)c1c(O)c2ccccc2oc1=O` (stereo not given), the TGI in test [1], in test [2], in [3], in test [4], in [5] and in test [6] was more than 100 µM throughout. Further, the TGI in test [7], in test [8], in test [9] and in test [10] was more than 100 µM throughout.
For `Cc1ccc(/C=C2\CN(C)CC3C2=NC(=S)NC3c2ccc(C)cc2)cc1` (stereo not given), the TGI in [1], in test [2], in test [3], in [4], in test [5] and in test [6] was more than 100 µM throughout. The TGI in test [7], in test [8], in test [9] and in test [10] was more than 100 µM throughout.
`CC1=C2NCN(C)N=C2C(C#N)(C#N)C1(C#N)C#N`: the TGI in test [1] is more than 100 µM; in [2], 37.3 µM; in test [3] it was more than 76.6 µM; in [4], more than 100 µM; in test [5], 34.9 µM; in [6], 46.8 µM. For the same molecule, the TGI was 42.2 µM in test [7], more than 75 µM in test [8], 36.7 µM in test [9] and 4.84 µM in test [10].
As for `CNc1ccc(S(=O)Nc2ccccc2)cc1` (stereo not given), the TGI was more than 100 µM in test [1]; more than 100 µM in test [2]; more than 100 µM in [3]; more than 100 µM in [4]; more than 100 µM in [5]; 81.3 µM in [6]. Also, the TGI in test [7], in [8], in [9] and in test [10] was more than 100 µM in each case.
On to `O=P(O)(O)CN1CCNCCN(CP(=O)(O)O)CCNCC1`, for which the TGI in test [1] is more than 94.9 µM; in test [2], more than 100 µM; in test [3], more than 100 µM; in test [4], more than 100 µM; in [5] it was more than 100 µM; in [6], more than 100 µM. In addition, the TGI is more than 100 µM in test [7], more than 100 µM in test [8], more than 100 µM in test [9] and 15.2 µM in [10].
On to `CC(C)=CCC[C@@H](C)c1c2[nH]c3ccccc3sc-2c(C)c(=O)c1=O`, for which the TGI in test [1] was 11.1 µM; in test [2], 25 µM; in test [3] it was more than 35.3 µM; in test [4], 30.7 µM; in test [5], 67.2 µM; in [6] it was 68.6 µM. The TGI in [7] is more than 75 µM; in [8], more than 75 µM; in [9] it was 14.4 µM; in [10], 5.02 µM.
`O=C1CSc2nnc(CCCCCCCCc3nnc4n3NC(=O)CS4)n2N1`: the TGI in test [1], in test [2], in test [3], in test [4], in test [5] and in test [6] was more than 100 µM each time. In addition, the TGI in test [7], in test [8], in test [9] and in test [10] was more than 100 µM throughout.
As to `CC(=O)c1ccc(NC(=O)CSc2nc(C)nc3c2sc(=S)n3-c2ccccc2)cc1`, the TGI in test [1], in [2], in test [3], in test [4], in test [5] and in test [6] was more than 3.16 µM throughout. The TGI in [7] was more than 3.16 µM; in test [8], more than 3.16 µM; in [9], more than 10 µM; in [10], more than 3.16 µM.
As for `CCCNC(=O)CCC(C)[C@H]1CCC2C3C(C[C@H](OC(C)=O)[C@@]21C)[C@@]1(C)CCC2(C[C@H]1C[C@H]3OC(C)=O)OOC1(CCCCC1)OO2` (stereo not given in full), the TGI in [1] is more than 57.2 µM; in [2], 4.68 µM; in test [3], 10.4 µM; in [4], 7.05 µM; in test [5], 16 µM; in test [6] it was more than 100 µM. In addition, the TGI was more than 75.5 µM in [7], 3.36 µM in [8], 0.232 µM in [9] and 3.94 µM in test [10].
On to `CC1(C)[C@@H]2CC[C@@]1(C)[C@H](O)[C@@H]2SCc1ccccc1`, for which the TGI in test [1] is 39.4 µM; in [2] it was more than 100 µM; in [3], 32.6 µM; in [4] it was 33.7 µM; in test [5], 34.5 µM; in test [6] it was 22.2 µM. Also, the TGI in test [7] came out at 74.9 µM; in [8], 40.6 µM; in [9], 35.4 µM; in test [10], 54.3 µM.
Consider `CCOC(=O)/C(C#N)=C/N(CC)/N=C/c1ccccc1`, for which the TGI in test [1], in test [2], in test [3], in [4], in test [5] and in test [6] was more than 100 µM throughout. Further, the TGI in test [7], in test [8], in test [9] and in test [10] was more than 100 µM throughout.
Regarding `O=C1CC2(CCNCC2)C(=O)N1N1CCOCC1`, the TGI in test [1], in test [2], in test [3], in test [4], in [5] and in test [6] was more than 100 µM in each case. Also, the TGI in test [7], in test [8], in test [9] and in test [10] was more than 100 µM throughout.
Consider `O=C1C=C(N2CCN(c3ccccn3)CC2)C(=O)c2c(O)ccc(O)c21`, for which the TGI is more than 56.2 µM in test [1]; 41.7 µM in [2]; more than 56.2 µM in test [3]; 18.6 µM in test [4]; 45.2 µM in [5]; 16.1 µM in [6]. Moreover, the TGI was 45.2 µM in test [7], more than 55.5 µM in test [8], more than 46.4 µM in test [9] and 20.3 µM in [10].
On to `O=S1(=O)CCN(c2ccccc2CC(c2c[nH]c3ccccc23)c2c[nH]c3ccccc23)CC1`, for which the TGI in test [1] is 42.7 µM; in test [2] it was 5.01 µM; in [3], 62.2 µM; in test [4], 21.1 µM; in test [5], 24.1 µM; in test [6], 18.9 µM. Also, the TGI in test [7] worked out at 21.1 µM; in [8], 35.4 µM; in test [9], 72 µM; in [10] it was 12.7 µM.
